Measured values taken from ChEMBL document CHEMBL1201862, “PubChem BioAssay data set” (2004).
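Assay format: 96-well plates, 48-hour exposure. GI50 is the concentration that inhibits growth by half.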 Active and inactive are the calls of the source. Rule as the data show it: active = GI50 up to about 1.1 µM and inactive = higher.

Legend:
Assay in all cases: NCI-60 cell line screen, 48 h
HOP-18 = system: HOP-18
SF-268 = system: SF-268
A498 = system: A498
CAKI-1 = system: CAKI-1
Malme-3M = system: Malme-3M
HCC 2998 = system: HCC 2998
HOP-62 = system: HOP-62
SN12C = system: SN12C
U-251 = system: U-251
ACHN = system: ACHN
NCI-H522 = system: NCI-H522
NCI-H460 = system: NCI-H460
SK-MEL-5 = system: SK-MEL-5
OVCAR-3 = system: OVCAR-3
T47D = system: T47D
NCI/ADR-RES = system: NCI/ADR-RES
MDA-MB-231 = system: MDA-MB-231
DU-145 = system: DU-145
Hs-578T = system: Hs-578T
MCF7 = system: MCF7

Measured: GI50

Cc1ccc(S(=O)(=O)N(/N=C(\N)Oc2ccc(Cl)cc2)C(=N)Oc2ccc(Cl)cc2)cc1
inactive: HOP-18 > 100 µM | SF-268 > 100 µM | A498 > 100 µM | CAKI-1 > 100 µM | Malme-3M > 100 µM | HCC 2998 > 100 µM | HOP-62 > 100 µM | SN12C > 100 µM | U-251 > 100 µM | ACHN > 100 µM | NCI-H522 > 100 µM | NCI-H460 > 100 µM | SK-MEL-5 > 100 µM | OVCAR-3 > 100 µM

CCOC(=O)N1C/C(=C\c2ccccc2)C(=O)/C(=C/c2ccccc2)C1
active: MCF7 0.955 µM
inactive: HOP-18 20.3 µM | T47D 3.65 µM | NCI/ADR-RES 9.12 µM | SF-268 4.17 µM | MDA-MB-231 2.24 µM | A498 18 µM | DU-145 8.81 µM | CAKI-1 2.22 µM | Malme-3M 7.36 µM | HCC 2998 1.94 µM | HOP-62 4.41 µM | SN12C 2.17 µM | U-251 1.45 µM | ACHN 3.84 µM | NCI-H522 2.56 µM | Hs-578T 2.4 µM | NCI-H460 4 µM | SK-MEL-5 2.97 µM | OVCAR-3 4.23 µM

COc1ccc(NC(=O)CC(=O)n2nc(-c3ccccc3)c(/N=N/c3ccccc3C)c2-c2ccccc2)cc1
inactive: HOP-18 42.5 µM | T47D 22.7 µM | NCI/ADR-RES 29.6 µM | SF-268 17.9 µM | MDA-MB-231 71 µM | A498 21.5 µM | DU-145 45.8 µM | CAKI-1 17.3 µM | Malme-3M 24.3 µM | HCC 2998 > 78.7 µM | HOP-62 15.9 µM | SN12C 53.6 µM | U-251 16.4 µM | ACHN 26.1 µM | NCI-H522 23.6 µM | Hs-578T 14.3 µM | NCI-H460 22.4 µM | SK-MEL-5 40.2 µM | OVCAR-3 17.3 µM | MCF7 35.3 µM

O=C1NC(=S)NC(=O)C1=Cc1ccc([N+](=O)[O-])o1
inactive: HOP-18 20.7 µM | SF-268 39.8 µM | A498 > 100 µM | CAKI-1 19.5 µM | Malme-3M 14.7 µM | HCC 2998 60.7 µM | HOP-62 > 100 µM | SN12C 16.3 µM | U-251 > 100 µM | ACHN 18.4 µM | NCI-H522 19.9 µM | NCI-H460 > 100 µM | SK-MEL-5 23.4 µM

C/C(=C\Cc1cc(O)ccc1O)CCc1c(C)cc(O)c(C=O)c1C [PANICEIN B3]
inactive: HOP-18 17.8 µM | SF-268 15.8 µM | A498 40.3 µM | CAKI-1 22.4 µM | Malme-3M 21.3 µM | HCC 2998 43.2 µM | SN12C 28.2 µM | U-251 19.5 µM | ACHN 17.5 µM | NCI-H522 10.1 µM | NCI-H460 24.3 µM | SK-MEL-5 17.4 µM | OVCAR-3 24.9 µM

[O-][S+]1CSSC1
inactive: HOP-18 51.4 µM | SF-268 26.2 µM | A498 43.8 µM | CAKI-1 28.1 µM | Malme-3M 36.7 µM | HCC 2998 23.2 µM | HOP-62 36.3 µM | SN12C 12 µM | U-251 18.7 µM | ACHN 25.1 µM | NCI-H522 11.4 µM | SK-MEL-5 > 10 µM | OVCAR-3 17.9 µM

O=C1CC(CC(=O)C2CCCCC2=O)C(=O)N1 (configuration not stated)
inactive: HOP-18 > 100 µM | SF-268 > 100 µM | A498 > 100 µM | CAKI-1 > 100 µM | Malme-3M > 100 µM | HCC 2998 > 100 µM | HOP-62 > 100 µM | SN12C > 100 µM | U-251 > 100 µM | ACHN > 100 µM | NCI-H522 > 100 µM | NCI-H460 > 100 µM | OVCAR-3 > 100 µM

O=C1NC2(CCCC2)C2CCCCC12O (configuration not stated)
inactive: HOP-18 > 100 µM | SF-268 > 100 µM | A498 > 100 µM | CAKI-1 > 100 µM | Malme-3M > 100 µM | HOP-62 > 100 µM | SN12C > 100 µM | U-251 > 100 µM | ACHN > 100 µM | NCI-H522 > 100 µM | NCI-H460 > 100 µM | SK-MEL-5 > 100 µM | OVCAR-3 > 100 µM

CC1(C)CC(N2CCN(C3CC(C)(C)NC(C)(C)C3)CC2)CC(C)(C)N1
inactive: HOP-18 > 100 µM | SF-268 > 100 µM | A498 > 100 µM | CAKI-1 > 100 µM | HCC 2998 > 100 µM | HOP-62 > 100 µM | SN12C > 100 µM | U-251 > 100 µM | ACHN > 100 µM | NCI-H522 > 100 µM | NCI-H460 > 100 µM | SK-MEL-5 > 100 µM | OVCAR-3 > 100 µM

O=C(/C=C/c1ccc(Cl)c(Cl)c1)c1ccccc1Cl
inactive: HOP-18 12.7 µM | SF-268 6.64 µM | A498 17 µM | CAKI-1 9.89 µM | Malme-3M 16.6 µM | HCC 2998 10.5 µM | HOP-62 18.7 µM | SN12C 16.6 µM | U-251 5.64 µM | ACHN 15.3 µM | NCI-H522 11.8 µM | NCI-H460 11.6 µM | SK-MEL-5 13.7 µM | OVCAR-3 9.27 µM

CCOC(=O)/C(=C/c1cc(OC)ccc1OC)CC(=O)O
inactive: HOP-18 > 100 µM | SF-268 > 100 µM | A498 > 100 µM | CAKI-1 > 100 µM | Malme-3M > 31.6 µM | HCC 2998 > 31.6 µM | HOP-62 > 10 µM | SN12C > 100 µM | U-251 > 100 µM | ACHN > 100 µM | NCI-H522 > 100 µM | NCI-H460 > 100 µM | SK-MEL-5 > 100 µM | OVCAR-3 > 100 µM

COc1cc(C2C(Cl)C(=O)N2n2cnc3ccccc3c2=O)ccc1O (configuration not stated)
inactive: HOP-18 56.6 µM | SF-268 76.4 µM | CAKI-1 70.6 µM | Malme-3M > 100 µM | HCC 2998 > 100 µM | HOP-62 > 100 µM | SN12C 89.5 µM | U-251 73.1 µM | ACHN > 100 µM | NCI-H522 34 µM | NCI-H460 > 100 µM | SK-MEL-5 > 100 µM | OVCAR-3 85.1 µM

Oc1ccncc1-c1cnccc1O
inactive: HOP-18 > 100 µM | A498 > 100 µM | CAKI-1 > 100 µM | Malme-3M > 100 µM | HCC 2998 > 100 µM | SN12C > 100 µM | U-251 > 100 µM | ACHN > 100 µM | NCI-H522 > 100 µM | NCI-H460 37.5 µM | SK-MEL-5 > 100 µM | OVCAR-3 > 100 µM

O=[N+]([O-])c1ccc(/C=C/c2csnn2)cc1
inactive: HOP-18 > 100 µM | SF-268 > 100 µM | CAKI-1 > 100 µM | Malme-3M > 100 µM | HCC 2998 > 100 µM | HOP-62 > 100 µM | SN12C > 100 µM | U-251 > 100 µM | ACHN > 100 µM | NCI-H522 > 100 µM | NCI-H460 > 100 µM | SK-MEL-5 > 100 µM | OVCAR-3 > 100 µM

C[C@H](CCC(=O)O)[C@H]1CC[C@@]2(C)[C@@H]3C(=O)C[C@H]4C(C)(C)[C@@H](O)CC[C@]4(C)[C@H]3C(=O)C[C@]12C
inactive: T47D > 100 µM | NCI/ADR-RES > 100 µM | SF-268 > 100 µM | MDA-MB-231 > 100 µM | A498 > 100 µM | DU-145 > 100 µM | CAKI-1 > 100 µM | Malme-3M > 100 µM | HCC 2998 > 100 µM | HOP-62 > 100 µM | SN12C > 100 µM | U-251 > 100 µM | ACHN > 100 µM | NCI-H522 > 100 µM | Hs-578T 41.8 µM | NCI-H460 62.7 µM | SK-MEL-5 > 100 µM | OVCAR-3 > 100 µM | MCF7 > 100 µM
